# Measurements: US20070010671A1, “Novel quinazoline derivatives and methods of treatment related to the use thereof” (priority 2003, published 2007)
# Biological target: MCH receptor (Homo sapiens, UniProt Q99705)
# Assay: High throughput functional screening FLIPR/FDSS6000: inhibition of MCH-evoked intracellular Ca2+ changes
# Format: cell-based
# Details: class by percent of control at 10^-7 M or IC50
# Procedure, shortened: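 Cells expressing constitutively active MCH receptor, loaded with 4 μM Fluo4-AM for 1 h at 37 °C, were pretreated 3 min with compound, then challenged with MCH (50 nM for antagonist testing). MCH-evoked [Ca2+]i transients followed by FLIPR or FDSS (ex 488/em 530 nm) over 290 s.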
row,Structure (SMILES),class
1,"CN(C)c1nc(N[C@H]2CC[C@@H](NC(=S)NCc3ccccc3Cl)CC2)nc2ccccc12 [compound 254, N-(2-chlorobenzyl)-N′-(cis-4-{[4-(dimethylamino)quinazolin-2-yl]amino}cyclohexyl)thiourea]",1 (Class 1: The value of percent of control at 10^−7 M was less than 40% or the value of IC50 was less than 50 nM.)
2,"CCc1cccc(C)c1NC(=S)N[C@H]1CC[C@@H](Nc2nc(N(C)C)c3ccccc3n2)CC1 [compound 255, N-(cis-4-{[4-(dimethylamino)quinazolin-2-yl]amino}cyclohexyl)-N′-(2-ethyl-6-methylphenyl)thiourea]",1 (Class 1: The value of percent of control at 10^−7 M was less than 40% or the value of IC50 was less than 50 nM.)
3,"CC(C)c1ccccc1NC(=S)N[C@H]1CC[C@@H](Nc2nc(N(C)C)c3ccccc3n2)CC1 [compound 256, N-(cis-4-{[4-(dimethylamino)quinazolin-2-yl]amino}cyclohexyl)-N′-(2-isopropylphenyl)thiourea]",1 (Class 1: The value of percent of control at 10^−7 M was less than 40% or the value of IC50 was less than 50 nM.)
4,CSc1cccc(NC(=S)N[C@H]2CC[C@@H](Nc3nc(N(C)C)c4ccccc4n3)CC2)c1 [compound 257],3 (Class 3: The value of percent of control at 10^−7 M was more than 60% or the value of IC50 was more than 200 nM.)
5,CN(C)c1nc(N[C@H]2CC[C@@H](NC(=S)NCc3ccc(Cl)c(Cl)c3)CC2)nc2ccccc12 [compound 258],3 (Class 3: The value of percent of control at 10^−7 M was more than 60% or the value of IC50 was more than 200 nM.)
6,COc1cc(NC(=S)N[C@H]2CC[C@@H](Nc3nc(N(C)C)c4ccccc4n3)CC2)cc(OC)c1 [compound 259],2 (Class 2: The value of percent of control at 10^−7 M was from 40% to 60% or the value of IC50 was from 50 nM to 200 nM.)
7,"Cc1cc(C)cc(NC(=S)N[C@H]2CC[C@@H](Nc3nc(N(C)C)c4ccccc4n3)CC2)c1 [compound 260, N-(cis-4-{[4-(dimethylamino)quinazolin-2-yl]amino}cyclohexyl)-N′-(3,5-dimethylphenyl)thiourea]",2 (Class 2: The value of percent of control at 10^−7 M was from 40% to 60% or the value of IC50 was from 50 nM to 200 nM.)
8,CN(C)c1nc(N[C@H]2CC[C@@H](NC(=S)Nc3cccc(OCc4ccccc4)c3)CC2)nc2ccccc12 [compound 261],3 (Class 3: The value of percent of control at 10^−7 M was more than 60% or the value of IC50 was more than 200 nM.)
9,Cc1ccc(NC(=S)N[C@H]2CC[C@@H](Nc3nc(N(C)C)c4ccccc4n3)CC2)cc1Cl [compound 262],2 (Class 2: The value of percent of control at 10^−7 M was from 40% to 60% or the value of IC50 was from 50 nM to 200 nM.)
10,COC(=O)c1cccc(NC(=S)N[C@H]2CC[C@@H](Nc3nc(N(C)C)c4ccccc4n3)CC2)c1 [compound 263],1 (Class 1: The value of percent of control at 10^−7 M was less than 40% or the value of IC50 was less than 50 nM.)
11,CN(C)c1nc(N[C@H]2CC[C@@H](NC(=S)NCCCc3ccccc3)CC2)nc2ccccc12 [compound 264],3 (Class 3: The value of percent of control at 10^−7 M was more than 60% or the value of IC50 was more than 200 nM.)
12,CN(C)c1nc(N[C@H]2CC[C@@H](NC(=S)Nc3ccc(OCc4ccccc4)cc3)CC2)nc2ccccc12 [compound 265],3 (Class 3: The value of percent of control at 10^−7 M was more than 60% or the value of IC50 was more than 200 nM.)
13,"Cc1cc(Br)cc(C)c1NC(=S)N[C@H]1CC[C@@H](Nc2nc(N(C)C)c3ccccc3n2)CC1 [compound 266, N-(4-bromo-2,6-dimethylphenyl)-N′-(cis-4-{[4-(dimethylamino)quinazolin-2-yl]amino}cyclohexyl)thiourea]",1 (Class 1: The value of percent of control at 10^−7 M was less than 40% or the value of IC50 was less than 50 nM.)
14,Cc1cc(Br)ccc1NC(=S)N[C@H]1CC[C@@H](Nc2nc(N(C)C)c3ccccc3n2)CC1 [compound 267],1 (Class 1: The value of percent of control at 10^−7 M was less than 40% or the value of IC50 was less than 50 nM.)
15,"CN(C)c1nc(N[C@H]2CC[C@@H](NC(=S)Nc3ccc(Br)cc3C(F)(F)F)CC2)nc2ccccc12 [compound 268, N-[4-bromo-2-(trifluoromethyl)phenyl]-N′-(cis-4-{[4-(dimethylamino)quinazolin-2-yl]amino}cyclohexyl)thiourea]",1 (Class 1: The value of percent of control at 10^−7 M was less than 40% or the value of IC50 was less than 50 nM.)
16,Cc1cc(Cl)ccc1NC(=S)N[C@H]1CC[C@@H](Nc2nc(N(C)C)c3ccccc3n2)CC1 [compound 269],1 (Class 1: The value of percent of control at 10^−7 M was less than 40% or the value of IC50 was less than 50 nM.)
17,CN(C)c1nc(N[C@H]2CC[C@@H](NC(=S)Nc3ccc(Cl)c([N+](=O)[O-])c3)CC2)nc2ccccc12 [compound 270],3 (Class 3: The value of percent of control at 10^−7 M was more than 60% or the value of IC50 was more than 200 nM.)

row,Structure (SMILES),class
1,CN(C)c1nc(N[C@H]2CC[C@@H](NC(=S)NCc3ccc(Cl)cc3)CC2)nc2ccccc12 [compound 271],3 (Class 3: The value of percent of control at 10^−7 M was more than 60% or the value of IC50 was more than 200 nM.)
2,CCOC(=O)c1ccc(NC(=S)N[C@H]2CC[C@@H](Nc3nc(N(C)C)c4ccccc4n3)CC2)cc1 [compound 272],3 (Class 3: The value of percent of control at 10^−7 M was more than 60% or the value of IC50 was more than 200 nM.)
3,"CN(C)c1nc(N[C@H]2CC[C@@H](NC(=S)NCc3ccc(F)cc3)CC2)nc2ccccc12 [compound 274, N-(cis-4-{[4-(dimethylamino)quinazolin-2-yl]amino}cyclohexyl)-N′-(4-fluorobenzyl)thiourea]",2 (Class 2: The value of percent of control at 10^−7 M was from 40% to 60% or the value of IC50 was from 50 nM to 200 nM.)
4,"CC(C)c1ccc(NC(=S)N[C@H]2CC[C@@H](Nc3nc(N(C)C)c4ccccc4n3)CC2)cc1 [compound 275, N-(cis-4-{[4-(dimethylamino)quinazolin-2-yl]amino}cyclohexyl)-N′-(4-isopropylphenyl)thiourea]",2 (Class 2: The value of percent of control at 10^−7 M was from 40% to 60% or the value of IC50 was from 50 nM to 200 nM.)
5,COc1ccc(NC(=S)N[C@H]2CC[C@@H](Nc3nc(N(C)C)c4ccccc4n3)CC2)c([N+](=O)[O-])c1 [compound 276],3 (Class 3: The value of percent of control at 10^−7 M was more than 60% or the value of IC50 was more than 200 nM.)
6,"COc1ccc(CNC(=S)N[C@H]2CC[C@@H](Nc3nc(N(C)C)c4ccccc4n3)CC2)cc1 [compound 277, N-(cis-4-{[4-(dimethylamino)quinazolin-2-yl]amino}cyclohexyl)-N′-(4-methoxybenzyl)thiourea]",2 (Class 2: The value of percent of control at 10^−7 M was from 40% to 60% or the value of IC50 was from 50 nM to 200 nM.)
7,COC(=O)c1ccc(NC(=S)N[C@H]2CC[C@@H](Nc3nc(N(C)C)c4ccccc4n3)CC2)cc1 [compound 278],2 (Class 2: The value of percent of control at 10^−7 M was from 40% to 60% or the value of IC50 was from 50 nM to 200 nM.)
8,Cc1ccc(NC(=S)N[C@H]2CC[C@@H](Nc3nc(N(C)C)c4ccccc4n3)CC2)c([N+](=O)[O-])c1 [compound 279],3 (Class 3: The value of percent of control at 10^−7 M was more than 60% or the value of IC50 was more than 200 nM.)
9,Cc1ccc(CNC(=S)N[C@H]2CC[C@@H](Nc3nc(N(C)C)c4ccccc4n3)CC2)cc1 [compound 280],3 (Class 3: The value of percent of control at 10^−7 M was more than 60% or the value of IC50 was more than 200 nM.)
10,CCCCc1ccc(NC(=S)N[C@H]2CC[C@@H](Nc3nc(N(C)C)c4ccccc4n3)CC2)cc1 [compound 281],3 (Class 3: The value of percent of control at 10^−7 M was more than 60% or the value of IC50 was more than 200 nM.)
11,COc1ccc(Cl)cc1NC(=S)N[C@H]1CC[C@@H](Nc2nc(N(C)C)c3ccccc3n2)CC1 [compound 282],3 (Class 3: The value of percent of control at 10^−7 M was more than 60% or the value of IC50 was more than 200 nM.)
12,"CN(C)c1nc(N[C@H]2CC[C@@H](NC(=S)NC(c3ccccc3)c3ccccc3)CC2)nc2ccccc12 [compound 284, N-(cis-4-{[4-(dimethylamino)quinazolin-2-yl]amino}cyclohexyl)-N′-(diphenylmethyl)thiourea]",2 (Class 2: The value of percent of control at 10^−7 M was from 40% to 60% or the value of IC50 was from 50 nM to 200 nM.)
13,CN(C)c1nc(N[C@H]2CC[C@@H](NC(=S)NC3CCCCCCCCCCC3)CC2)nc2ccccc12 [compound 285],3 (Class 3: The value of percent of control at 10^−7 M was more than 60% or the value of IC50 was more than 200 nM.)
14,"CN(C)c1nc(N[C@H]2CC[C@@H](NC(=S)NCC3CCCCC3)CC2)nc2ccccc12 [compound 286, N-(cyclohexylmethyl)-N′-(cis-4-{[4-(dimethylamino)quinazolin-2-yl]amino}cyclohexyl)thiourea]",2 (Class 2: The value of percent of control at 10^−7 M was from 40% to 60% or the value of IC50 was from 50 nM to 200 nM.)
15,"CN(C)c1nc(N[C@H]2CC[C@@H](NC(=S)NC3CCCCCCC3)CC2)nc2ccccc12 [compound 287, N-cyclooctyl-N′-(cis-4-{[4-(dimethylamino)quinazolin-2-yl]amino}cyclohexyl)thiourea]",2 (Class 2: The value of percent of control at 10^−7 M was from 40% to 60% or the value of IC50 was from 50 nM to 200 nM.)
16,"CN(C)c1nc(N[C@H]2CC[C@@H](NC(=S)NC3CC3)CC2)nc2ccccc12 [compound 288, N-cyclopropyl-N′-(cis-4-{[4-(dimethylamino)quinazolin-2-yl]amino}cyclohexyl)thiourea]",2 (Class 2: The value of percent of control at 10^−7 M was from 40% to 60% or the value of IC50 was from 50 nM to 200 nM.)
